Measurements as given in US11767295B2, “Isoindole derivative” (TIANJIN HEMAY PHARMACEUTICAL CO., LTD., priority 2018, dated 2023).

What was measured:
Type in all cases: in vivo
[1] = system: DNCB-induced atopic dermatitis in Balb/c mice; assay: Efficacy evaluation test of DNCB-induced atopic dermatitis in Balb/c mice model (Biological Example 1); conditions: BID × 10; for Inhibitory Rate of Ear Swelling Degree / Inhibitory Rate of Ear Thickness / Ear Thickness Change, Day 1 / Ear Thickness Change, Day 10 / Weight Changes of Animals, Day 10 / Ear Thickness Change, Day 17 / Weight Changes of Animals, Day 17 / Ear Thickness Change, Day 18 / Weight Changes of Animals, Day 18 / Ear Thickness / Ear Swelling Degree / IgE Concentration / Inhibitory Rate of IgE Concentration: 1 mg/mouse on ear; for Inhibitory Rate of Ear Swelling Degree / Inhibitory Rate of Ear Thickness / Ear Thickness / Ear Swelling Degree / IgE Concentration / Inhibitory Rate of IgE Concentration: 18th day; for Inhibitory Rate of Ear Swelling Degree / Inhibitory Rate of Ear Thickness / Inhibitory Rate of IgE Concentration: vs model and blank control; for Weight Changes of Animals, Day 1 / Inhibitory Rate of Ear Thickness / Ear Thickness Change, Day 1 / Ear Thickness Change, Day 10 / Weight Changes of Animals, Day 10 / Ear Thickness Change, Day 17 / Weight Changes of Animals, Day 17 / Ear Thickness Change, Day 18 / Weight Changes of Animals, Day 18 / Ear Thickness: Balb/c mice; for Weight Changes of Animals, Day 1: 1 mg/mouse (50 mg/mL, 20 μL) on ear; for Weight Changes of Animals, Day 1 / Ear Thickness Change, Day 1 / Ear Thickness Change, Day 10 / Weight Changes of Animals, Day 10 / Ear Thickness Change, Day 17 / Weight Changes of Animals, Day 17 / Ear Thickness Change, Day 18 / Weight Changes of Animals, Day 18: Mean ± S.D.; for Ear Thickness: Table 4; for Ear Swelling Degree: right minus left ear piece weight (8 mm punch); for IgE Concentration / Inhibitory Rate of IgE Concentration: serum
Method: 60 healthy male SPF Balb/c mice, each of which the body weight was 19-21 g, were randomly divided into 6 groups by body weight. There were 10 mice in each group.
Before the test, the hair around the right ear of the mouse was removed to reduce the interference in the drug adhesion to the hair.
The start of the test was recorded as Day 1. The specific time for measuring ear thickness was slightly adjusted based on FIG. 1. After the end of the 18th day of the test, blood was taken from each animal to detect the concentration of immunoglobulin (IgE) in the serum (in accordance with the kit instructions). Both ears of the animal were cut off. Ear pieces were cut by an 8 mm punch at the fixed position of the ears and weighed. Differences in the swelling degrees of two ears were calculated.
The changes in mouse ear thickness and the ear weights of the same area and the IgE concentrations in the serum among different groups on the 18th day were analyzed and compared statistically with One-Way Anova in SPSS 17, respectively. The G test method was used to delete outliers. p<0.05 indicated there were statistical differences. Ear swelling degree (mg)=right ear weight (mg)−left ear weight (mg); Ear thickness change (mm)=right ear thickness (mm)−left ear thickness (mm); Inhibitory rate of ear swelling degree (%)=1−(ear swelling degree of drug administration group−ear swelling degree of blank control group)/(ear swelling degree of model control group−ear swelling degree of blank control group)×100%; Inhibitory rate of ear thickness change (%)=1−(ear thickness change of drug administration group−ear thickness change of blank control group)/(ear thickness change of model control group−ear thickness change of blank control group)×100%; Inhibitory rate of IgE (%)=1−(IgE concentration in administration group−IgE concentration in blank control group)/(IgE concentration in model control group−IgE concentration in blank control group)×100%.

[2] = system: Phorbol ester (TPA)-induced ear swelling in mice; assay: Inhibition of phorbol ester (TPA)-induced ear swelling in mice (Biological Example 5); conditions: ICR mice, 5 hours after TPA modeling
Method: (§1) 72 male ICR mice were selected and divided into 9 groups. There were 8 mice in each group.
(§2) Before the test, the animals were grouped and the hair around the right ear of the mice was removed.
(§3) 20 μL of respective drug was applied to the animals in each test group (a blank solvent was applied to the model control group). Modeling and induction were carried out after 1 h 10 min. Except for the blank group, 20 μL of TPA at a concentration of 125 μg/mL were applied to the right ears of the animals for induction. After induction for 10 minutes, 20 μL of respective drug were applied to the right ears of the animals in each test group (a blank solvent was applied to the model control group).
(§4) After modeling for 5 hours, ear pieces of both sides on the same location of animals in each group were taken with a punch and weighed to calculate the ear swelling degree, ear swelling rate and inhibitory rate.
(§5) The ear swelling degree and ear swelling rate after modeling and administration for 5 hours were analyzed and tested with One-Way ANOVA multiple-group test index in SPSS17.0. P<0.05 indicated there were statistical differences. Ear swelling degree (mg)=right ear weight (mg)−left ear weight (mg); Ear swelling rate (%)=(right ear weight−left ear weight)/left ear weight×100%; Inhibitory rate of ear swelling degree (%)=1−(ear swelling degree of drug administration group−ear swelling degree of blank control group)/(ear swelling degree of model control group−ear swelling degree of blank control group)×100%.

ICR mice = assay: Acute toxicity test of single gavage in mice (Biological Example 9); conditions: ICR mice, single gavage 2000 mg/Kg; for Clinical observation: appearance, breath, behavior, reflex and defecation: male and female, observed 15 days; for Dissection and general observation of each organ / Organ indexes: end of the test
Method: 30 healthy ICR mice of SPF grade were randomly divided into 5 groups according to the gender segment, in which 15 mice were male and 15 mice were female. There were 3 mice/gender/group. There were 6 mice in each group, in which 3 mice were male and 3 mice were female.
Single administration by gavage was carried out. The symptoms and responses of all the animals were observed after the administration and were recorded faithfully. The test was observed continuously for 15 days. The symptoms of the animals were recorded. After the test, the tissues and organs of all the animals were weighed, observed and recorded. The specimens were kept.
Body weight, appearance, breath, behavior, reflex and defecation.

[3] = system: Phorbol ester (TPA)-induced ear swelling in mice; assay: Inhibition of phorbol ester (TPA)-induced ear swelling in mice (Biological Example 4); conditions: ICR mice, 30 mg/mL in acetone, 40 μL in 2 administrations on right ear; 5 hours after TPA modeling
Method: 40 male ICR mice were selected and divided into 5 groups. There were 8 mice in each group.
as §2
as §3, with “drug was” for “drug were”
as §4, §5

[4] = system: Phorbol ester (TPA)-induced ear swelling in mice; assay: Inhibition of phorbol ester (TPA)-induced ear swelling in mice (Biological Example 6); conditions: ICR mice, 5 hours after TPA modeling
Method: as §1, §2, §3
After modeling for 5 hours, ear pieces of both sides at the same location of animals in each group were taken with a punch and weighed to calculate the ear swelling degree, ear swelling rate and inhibitory rate.
as §5, with “P<0.05 indicated there were statistical differences.” left out, “(%)=1−(swelling” for “(%)=1−(ear swelling”, “group−swelling” for “group−ear swelling”, “group)/(swelling” for “group)/(ear swelling”

[5] = 2 mg/mouse on right ear, (right−left)/left ear weight
[6] = 2 mg/mouse on right ear, vs model and blank control
[7] = 50 mg/mL in acetone, 40 μL in 2 administrations (2 mg/mouse)

Compound | Inhibitory Rate of Ear Swelling Degree [1] [%] | Weight Changes of Animals, Day 1 [1] [g] | Inhibitory Rate of Ear Thickness [1] [%] | Ear Thickness Change, Day 1 [1] [mm] | Ear Thickness Change, Day 10 [1] [mm] | Weight Changes of Animals, Day 10 [1] [g] | Ear Thickness Change, Day 17 [1] [mm] | Weight Changes of Animals, Day 17 [1] [g] | Ear Thickness Change, Day 18 [1] [mm] | Weight Changes of Animals, Day 18 [1] [g] | Ear Thickness [1] [mm] | Ear Swelling Degree [1] [mg] | IgE Concentration [1] [ng/mL] | Inhibitory Rate of IgE Concentration [1] [%] | Clinical observation: appearance, breath, behavior, reflex and defecation (ICR mice) | Dissection and general observation of each organ (ICR mice) | Organ indexes (ICR mice) | Inhibitory Rate of Ear Swelling Degree [3] [%] | other results
CCCOC(=O)CC(c1ccc(OC)c(OCC)c1)N1C(=O)c2cccc(NC(C)=O)c2C1=O (stereo not drawn) [Example 11, propyl 3-(4-acetamido-1,3-dioxoisoindolin-2-yl)-3-(3-ethoxy-4-methoxyphenyl)propionate] | 49.2 | 20.3 ± 1.3 | 51.5 | 0.22 ± 0.01 | 0.33 ± 0.09 | 21.6 ± 1.1 | 0.35 ± 0.04 | 21.2 ± 1.2 | 0.48 ± 0.06 | 21.1 ± 1.3 | 0.48 ± 0.06 | 12.8 ± 4.9 | 5854.5 ± 2631.7 | 36.5 | No obvious abnormalities of appearance, breath, behavior, | No obvious abnormalities related to the compounds were | No obvious abnormalities of organ indexes were observed. | – | Ear Swelling Rate [2, 5]: 46.3 ± 35.7 %; Inhibitory Rate of Ear Swelling Degree [2, 6]: 81.7%; Ear Swelling Degree [2, 7]: 6.5 ± 5.0 mg
CCOc1cc(C(CC(=O)OC)N2C(=O)c3cccc(NC(C)=O)c3C2=O)ccc1OC (stereo not drawn) [Example 1, methyl 3-(4-acetamido-1,3-dioxoisoindolin-2-yl)-3-(3-ethoxy-4-methoxyphenyl)propionate] | 21.3 | 21.0 ± 0.8 | 22.5 | 0.22 ± 0.02 | 0.47 ± 0.02 | 22.4 ± 0.8 | 0.60 ± 0.08 | 21.9 ± 1.1 | 0.64 ± 0.07 | 22.0 ± 1.3 | 0.64 ± 0.07 | 19.9 ± 5.1 | 6631.4 ± 1431.1 | 25.6 | – | – | – | 60.1 | –
CCOc1cc([C@@H](CC(=O)OC)N2C(=O)c3cccc(NC(C)=O)c3C2=O)ccc1OC [Example 9, methyl (R)-3-(4-acetamido-1,3-dioxoisoindolin-2-yl)-3-(3-ethoxy-4-methoxyphenyl)propionate] | – | – | – | – | – | – | – | – | – | – | – | – | – | – | – | – | – | 54.5 | –
CCCOc1ccc(C(CC(=O)OC)N2C(=O)c3cccc(NC(C)=O)c3C2=O)cc1OCC (stereo not drawn) [Example 31, methyl 3-(4-acetamido-1,3-dioxoisoindolin-2-yl)-3-(3-ethoxy-4-propoxyphenyl)propionate] | – | – | – | – | – | – | – | – | – | – | – | – | – | – | No obvious abnormalities of appearance, breath, behavior, | No obvious abnormalities related to the compounds were | No obvious abnormalities of organ indexes were observed. | – | Ear Swelling Rate [4, 5]: 34.3 ± 14.9 %; Inhibitory Rate of Ear Swelling Degree [4, 6]: 87.6%; Ear Swelling Degree [4, 7]: 4.9 ± 2.0 mg
